Assay results: ChEMBL document CHEMBL5113457, “Withaferin A, a polyfunctional pharmacophore that includes covalent engagement of IPO5, is an inhibitor of influenza A replication” (Bioorg Med Chem, 2022)
The source made the active and inactive calls. The calls are words filed in the database; no cut-off is given here.

Legend:
Influenza A virus [1] = test: Antiviral activity against drug treated Influenza A virus strain A/Netherlands/604/2009 cell lysate infected in dog MDCK cells assessed as reduction in viral replication at 1 uM and measured after 8 hr by crystal violet staining based plaque assay; format: functional, organism-based
A549 [2] = test: Upregulation of HO-1 expression in human A549 cells at 1 uM for 2 to 6 hrs by western blot analysis; format: functional, cell-based; details: time 2-6 hrs
A549 [3] = test: Cytotoxicity against human A549 cells assessed as reduction in cell viability at 1 uM for 10 hrs by Hoechst 33342 staining based fluorescence microscopy; format: toxicity; details: a549, 10 h
Influenza A virus [4] = test: Antiviral activity against drug treated Influenza A virus strain A/Netherlands/604/2009 cell lysate infected in dog MDCK cells assessed as reduction in viral replication at 500 nM and measured after 8 hr by crystal violet staining based plaque assay; format: functional, organism-based
[5] = target: Heat shock protein HSP90 (Homo sapiens) (UniProt P07900+P08238); test: Binding affinity to recombinant human HSP90 at 10 uM by Western blotting based pull-down assay; format: protein assay
[6] = target: Annexin A2 (Homo sapiens) (UniProt P07355); test: Competitive binding affinity to human annexin A2 in human A549 cell lysate at 10 uM for 30 mins followed by GOYA-P treatment for 30 mins by DTB-Cy3 dye based SDS-PAGE analysis; format: subcellular; details: time 60.0 min
Chain of Annexin A2 (Homo sapiens) (P07355 whole entry): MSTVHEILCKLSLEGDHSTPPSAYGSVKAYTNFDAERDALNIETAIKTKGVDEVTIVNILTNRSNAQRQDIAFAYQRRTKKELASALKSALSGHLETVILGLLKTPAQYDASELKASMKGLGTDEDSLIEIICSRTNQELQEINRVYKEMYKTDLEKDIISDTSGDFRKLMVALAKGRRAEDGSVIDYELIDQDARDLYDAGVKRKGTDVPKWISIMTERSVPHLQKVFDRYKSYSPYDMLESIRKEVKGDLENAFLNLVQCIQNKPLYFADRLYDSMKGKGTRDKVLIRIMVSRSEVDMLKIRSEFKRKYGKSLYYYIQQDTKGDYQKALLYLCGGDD

[7] = target: T1, Importin-5 (Homo sapiens) (UniProt O00410); test: Competitive binding affinity to human IPO5 in human PC-3 cell lysate at 10 uM for 30 mins followed by GOYA-P treatment for 30 mins by DTB-Cy3 dye based SDS-PAGE analysis; format: subcellular; details: time 60.0 min
T1 sequence (whole entry): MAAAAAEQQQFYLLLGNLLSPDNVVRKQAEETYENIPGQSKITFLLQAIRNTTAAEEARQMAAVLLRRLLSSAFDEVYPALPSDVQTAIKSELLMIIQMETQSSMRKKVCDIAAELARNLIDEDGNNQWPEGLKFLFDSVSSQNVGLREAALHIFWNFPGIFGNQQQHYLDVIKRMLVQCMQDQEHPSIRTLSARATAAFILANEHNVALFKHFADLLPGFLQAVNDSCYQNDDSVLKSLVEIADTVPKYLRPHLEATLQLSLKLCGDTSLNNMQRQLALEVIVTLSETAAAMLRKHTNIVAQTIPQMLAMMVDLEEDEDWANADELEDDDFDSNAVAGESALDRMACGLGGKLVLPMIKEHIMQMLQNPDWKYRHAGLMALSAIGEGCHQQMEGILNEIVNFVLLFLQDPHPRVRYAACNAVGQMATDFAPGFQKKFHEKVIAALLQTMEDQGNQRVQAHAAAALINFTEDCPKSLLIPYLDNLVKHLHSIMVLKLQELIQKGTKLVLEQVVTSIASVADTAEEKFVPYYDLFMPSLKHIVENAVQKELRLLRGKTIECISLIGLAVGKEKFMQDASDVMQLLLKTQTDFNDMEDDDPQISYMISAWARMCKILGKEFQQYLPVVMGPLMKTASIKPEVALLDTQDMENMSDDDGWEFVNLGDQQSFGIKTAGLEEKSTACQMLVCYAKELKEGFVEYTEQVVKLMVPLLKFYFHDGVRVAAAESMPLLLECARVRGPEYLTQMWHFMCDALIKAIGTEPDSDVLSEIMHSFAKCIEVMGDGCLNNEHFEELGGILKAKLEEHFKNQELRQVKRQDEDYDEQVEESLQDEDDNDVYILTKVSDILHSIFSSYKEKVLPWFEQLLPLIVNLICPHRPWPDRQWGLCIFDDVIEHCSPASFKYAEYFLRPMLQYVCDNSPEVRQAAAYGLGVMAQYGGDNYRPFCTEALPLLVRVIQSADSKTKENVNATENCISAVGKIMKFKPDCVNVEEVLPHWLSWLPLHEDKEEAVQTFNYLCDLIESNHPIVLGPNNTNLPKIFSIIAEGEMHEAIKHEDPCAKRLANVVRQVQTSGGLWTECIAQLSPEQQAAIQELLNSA

[8] = target: T1, Importin-5 (Homo sapiens); test: Binding affinity to human IPO5 in human PC-3 cell lysate incubated for 30 mins by DTB-Cy3 dye based pull down analysis; format: subcellular
[9] = target: T1, Importin-5 (Homo sapiens); test: Competitive binding affinity to human IPO5 in human PC-3 cell lysate at 10 uM for 30 mins followed by GOYA-P treatment for 30 mins by DTB-Cy3 dye based pull-down assay; format: subcellular; details: time 60.0 min
[10] = target: T1, Importin-5 (Homo sapiens); test: Binding affinity to human IPO5 in human PC-3 cell lysate assessed as inhibition of IPO5 interaction with NLS PB1 cargo protein from Influenza A virus at 10 uM for 30 mins by pull-down assay; format: subcellular
Influenza A virus [11] = test: Antiviral activity against Influenza A virus strain A/Netherlands/604/2009 infected in human A549 cells assessed as reduction in influenza virus nucleoprotein production at 1 to 10 uM preincubated for 40 mins followed by virus infection and measured after 4 to 6 hrs by Western blot analysis; format: functional, organism-based; details: dose 1-10 µM, time 280-400 min
Influenza A virus [12] = test: Antiviral activity against Influenza A virus strain A/Netherlands/604/2009 infected in human A549 cells assessed as reduction in influenza virus nucleoprotein production at 2.5 uM preincubated for 40 mins followed by virus infection and measured after 4 to 6 hrs by Western blot analysis; format: functional, organism-based; details: time 280-400 min
Influenza A virus [13] = test: Antiviral activity against Influenza A virus strain A/Netherlands/604/2009 infected in human A549 cells assessed as reduction in influenza virus nucleoprotein production at 1 uM preincubated for 40 mins followed by virus infection and measured after 4 to 6 hrs by Western blot analysis; format: functional, organism-based; details: time 280-400 min
Vimentin (Homo sapiens) [14] = target: Vimentin (Homo sapiens) (UniProt P08670); test: Competitive binding affinity to human Vimentin in human PC-3 cell lysate at 10 uM for 30 mins followed by WA-P1 treatment for 30 mins by SDS gel Cy3 fluorescence based MS/MS analysis; format: subcellular; details: time 60.0 min
Chain of Vimentin (Homo sapiens) (P08670 whole entry): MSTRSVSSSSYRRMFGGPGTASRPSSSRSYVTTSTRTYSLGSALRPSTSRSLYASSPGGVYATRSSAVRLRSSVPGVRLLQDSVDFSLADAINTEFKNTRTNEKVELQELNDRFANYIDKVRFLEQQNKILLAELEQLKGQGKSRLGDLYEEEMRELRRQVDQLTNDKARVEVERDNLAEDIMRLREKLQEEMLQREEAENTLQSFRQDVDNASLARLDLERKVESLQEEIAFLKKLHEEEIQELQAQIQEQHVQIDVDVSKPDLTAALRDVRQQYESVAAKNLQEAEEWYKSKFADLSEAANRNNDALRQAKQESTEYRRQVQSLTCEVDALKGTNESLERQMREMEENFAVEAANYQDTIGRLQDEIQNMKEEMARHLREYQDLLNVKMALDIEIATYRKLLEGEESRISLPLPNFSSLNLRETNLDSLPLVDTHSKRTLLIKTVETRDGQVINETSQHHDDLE

Vimentin (Homo sapiens) [15] = target: Vimentin (Homo sapiens) (UniProt P08670); test: Competitive binding affinity to human Vimentin in human PC-3 cell lysate at 10 uM for 30 mins followed by WA-P2 treatment for 30 mins by SDS gel Cy3 fluorescence based MS/MS analysis; format: subcellular; details: time 60.0 min

In the case of COC(=O)[C@]12CCC(C)(C)C[C@@H]1[C@H]1C(=O)C=C3[C@@]4(C)C=C(C#N)C(=O)C(C)(C)[C@@H]4CC[C@@]3(C)[C@]1(C)CC2, the Activity (Influenza A virus [1]) is reported as “Active” and the Activity (A549 [2]) is reported as “Active”.

C#CCCC(=O)OCC1=C(C)CC([C@@H](C)[C@H]2CC[C@H]3[C@@H]4C[C@H]5O[C@]56[C@@H](O)C=CC(=O)[C@]6(C)[C@H]4CC[C@]23C)OC1=O (stereo partly drawn) was tested, and the Activity (A549 [3]) was “Non-Toxic”, the Activity (Influenza A virus [1]) was “Active” and the Activity (Influenza A virus [4]) was “Active”. The Activity [5] was “Active”.

With C=C(C)C(=O)O[C@H]1C[C@@]2(C)OC(=CC2=O)/C(CO)=C\[C@H]2OC(=O)C(=C)[C@H]12 [GOIAZENSOLIDE] the Activity [6] was “Active”, the Activity [7] was “Active” and the Activity (A549 [3]) was “Non-Toxic”. The Activity (Influenza A virus [1]) was “Active”.

In the case of C#CCOCC(=C)C(=O)O[C@H]1C[C@@]2(C)OC(=CC2=O)/C(CO)=C\[C@H]2OC(=O)C(=C)[C@H]12, the Activity [8] is reported as “Active”.

C#CCCC(=O)O[C@H]1C=CC(=O)[C@]2(C)[C@H]3CC[C@]4(C)[C@@H]([C@H](C)C5CC(C)=C(CO)C(=O)O5)CC[C@H]4[C@@H]3C[C@H]3O[C@]132 (stereo partly drawn) was tested, and the Activity (A549 [3]) was “Non-Toxic”, the Activity (Influenza A virus [1]) was “Active” and the Activity (Influenza A virus [4]) was “Active”. The Activity [5] was “Active”.

With CC1=C(CO)C(=O)O[C@@H]([C@@H](C)[C@H]2CC[C@H]3[C@@H]4C[C@H]5O[C@]56[C@@H](O)C=CC(=O)[C@]6(CO)[C@H]4CC[C@]23C)C1 the Activity [6] was “Active”, the Activity [7] was “Active” and the Activity [9] was “Active”. For the same molecule, the Activity [10] was “Active”, the Activity (Influenza A virus [11]) was “Active” and the Activity (Influenza A virus [12]) was “Active”. The Activity (Influenza A virus [13]) was “Active”, the Activity (A549 [3]) was “Non-Toxic” and the Activity (Influenza A virus [1]) was “Active”. For the same molecule, the Activity (Influenza A virus [4]) was “Active”, the Activity (Vimentin (Homo sapiens) [14]) was “Active” and the Activity (Vimentin (Homo sapiens) [15]) was “Active”. For the same molecule, the Activity (A549 [2]) was “Active”.
